Experimental data: patent publication US5476944A, “Derivatives of cyclic phenolic thioethers” (G. D. Searle & Co., priority 1994, dated 1995)
Where two headings read alike, the source gives them in different places.

Tests used:
[1] = test system: Rats; experiment: Chronic adjuvant-induced polyarthritis test; assay type: in vivo; conditions: intragastric; for minimal effective dose: Rattus norvegicus, po, 456 h, 18 days, rats, read-out: Minimum dose to result in a statistically significant reduction [p < 0.05] in the paw volume/body weight ratio; for % Inhibition in the paw volume to body weight ratio: at minimum significant dose 25 mg/kg/day, day 19, rats
Protocol: Chronic adjuvant-induced polyarthritis test:
Rats [50-70 gm] were weighed, ear tagged and intradermally inoculated in the tail base with 2.0 mg of heat killed M. butyricum suspended in 0.05 ml of white paraffin oil [n=12-15 per group]. Compounds were intragastrically administered beginning on the day of inoculation and continued for 18 days. Each daily dose was split [dose volume=0.5 ml/100 gm] and given approximately 7 hours apart. Animals were weighed every 3 days, and the dose was adjusted accordingly. On day 19, animals were sacrificed by inhalation of CO2, weighed, and total hind paw volume was measured by the displacement of water with a plethysmometer (Ugo Basile, Varese, Italy). A group of age-matched naive rats were included. These rats, designated "normal," were not inoculated with adjuvant or gavaged with vehicle.
For individual experiments, the paw volume/body weight ratios for each dose were compared to the ratio for the vehicle treated control group by a two-tailed Dunnett's t-test (p ≤0.05). The Dunnett's test was preceded by a Bartlett's test of variance homogeneity across the dose groups. If the Bartlett's test was significant, an appropriate variance stabilizing transformation was applied to the data, and the Dunnett's test was performed on the transformed data.

[2] = target: T1, Sheep Seminal Vesicle Microsome Cyclooxygenase (Ovis aries, UniProt P05979); experiment: Inhibition of Sheep Seminal Vesicle Microsome Cyclooxygenase; assay type: biochemical; conditions: for IC50: sheep seminal vesicle microsomes
T1 construct: Lyophilized ovine microsome (approximately 1 mg) suspended in 2.9 ml Tris-HCl buffer; from tissue; host or cells: sheep seminal vesicle microsomes, lyophilized
T1 sequence (P05979 25-600): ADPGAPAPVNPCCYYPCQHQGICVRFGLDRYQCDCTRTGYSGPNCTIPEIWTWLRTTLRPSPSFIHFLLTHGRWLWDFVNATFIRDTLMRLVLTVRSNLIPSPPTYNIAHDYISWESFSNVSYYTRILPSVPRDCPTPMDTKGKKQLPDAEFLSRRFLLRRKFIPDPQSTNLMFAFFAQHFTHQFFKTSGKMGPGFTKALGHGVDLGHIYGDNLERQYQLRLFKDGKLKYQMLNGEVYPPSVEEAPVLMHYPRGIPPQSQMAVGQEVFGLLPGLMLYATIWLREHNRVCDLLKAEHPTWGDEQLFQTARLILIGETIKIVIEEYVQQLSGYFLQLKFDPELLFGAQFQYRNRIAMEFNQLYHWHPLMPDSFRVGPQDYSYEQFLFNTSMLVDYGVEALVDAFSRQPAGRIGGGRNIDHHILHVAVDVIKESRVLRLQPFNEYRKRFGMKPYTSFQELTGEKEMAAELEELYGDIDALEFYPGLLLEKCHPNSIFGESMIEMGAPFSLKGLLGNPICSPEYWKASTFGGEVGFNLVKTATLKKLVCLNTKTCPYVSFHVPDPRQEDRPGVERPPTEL
Protocol: The compounds of the present invention evaluated with respect to cyclooxygenase inhibition according to the following assay procedure. Inhibition of Sheep Seminal Vesicle Microsome Cyclooxygenase: This assay was based on oxygen consumption during conversion of arachidonic acid to prostaglandin G2 catalyzed by cyclooxygenase BIOCHEM. 11:3276-3285 (1972), which is incorporated herein by reference. Lyophilized ovine microsome (approximately 1 mg) suspended in 2.9 ml Tris-HCl buffer, pH 8.2, containing 0.7 mM phenol were used as source of arachidonate cyclooxygenase. The inhibitor, 50 μl in DMSO, was added and the mixture was preincubated for 5 minutes at 37° C. Fifty μl of arachidonic acid (final concentration 50 μM) was added to start the reaction. The slopes of the initial rates of oxygen uptake, in the presence and absence of inhibitor, were compared to determine reaction inhibition. Percent inhibition was computed using the following formula: [formula]

[3] = target: T2, 5-lipoxygenase (Rattus norvegicus, UniProt P12527); experiment: Inhibition of 5-lipoxygenase, in vitro (5-HETE formation, RBL-1 homogenate supernatant); assay type: biochemical
T2 construct: The 100,000×g supernatant fraction of Rat Basophilic Leukemia Cell Homogenate (RBL-1); endogenous in cells; host or cells: RBL-1 (rat basophilic leukemia) cells, 100,000xg supernatant of homogenate
T2 sequence (P12527 1-673): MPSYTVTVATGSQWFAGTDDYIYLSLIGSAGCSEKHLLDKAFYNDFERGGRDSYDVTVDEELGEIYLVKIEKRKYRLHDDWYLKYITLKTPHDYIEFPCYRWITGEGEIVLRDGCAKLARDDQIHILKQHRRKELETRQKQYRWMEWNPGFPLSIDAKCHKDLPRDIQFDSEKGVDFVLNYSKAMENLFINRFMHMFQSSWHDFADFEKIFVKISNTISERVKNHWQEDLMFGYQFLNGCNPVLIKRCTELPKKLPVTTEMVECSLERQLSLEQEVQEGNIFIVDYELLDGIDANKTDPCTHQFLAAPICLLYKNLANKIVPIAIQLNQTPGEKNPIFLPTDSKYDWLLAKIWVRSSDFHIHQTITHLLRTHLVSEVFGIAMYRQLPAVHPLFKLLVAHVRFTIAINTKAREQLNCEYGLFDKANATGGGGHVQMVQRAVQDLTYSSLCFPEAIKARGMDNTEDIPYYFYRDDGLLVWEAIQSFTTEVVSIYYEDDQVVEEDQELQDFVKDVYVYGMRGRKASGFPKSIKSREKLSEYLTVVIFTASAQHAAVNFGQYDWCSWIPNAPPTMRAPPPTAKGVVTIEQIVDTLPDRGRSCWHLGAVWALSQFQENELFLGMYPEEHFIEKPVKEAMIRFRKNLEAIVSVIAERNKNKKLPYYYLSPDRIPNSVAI
Protocol: The compounds of the invention are evaluated with respect to 5-lipoxygenaseinhibition according to the following assay procedure.
Inhibition of 5-lipoxygenase, in vitro:
The 100,000×g supernatant fraction of Rat Basophilic Leukemia Cell Homogenate (RBL-1) serves as a 5-lipoxygenase enzyme source. The enzyme is incubated with [1-^4 C)-arachidonic acid and Ca++ in the presence and absence of test compound. The product of 5-lipoxygenase, 5-hydroxyeicosatetraenoic acid (5-HETE), is separated by thin-layer chromatography and measured by radioactivity. A compound inhibiting 5-HETE synthesis by 30% or more is considered active at that concentration.
For comparison the compound of Formula XX, a known 5-lipoxygenase inhibitor described in U.S. Pat. No. 4,755,524 was used: [drawing 29] (±)[2S*-[[3,5-bis(1,1-dimethylethyl)-4-hydroxyphenyl]thio]-1R*-methylpro poxy]acetic acid.

[4] = test system: Human neutrophil superoxide generation; experiment: Human neutrophil superoxide generation, FMLP-induced; assay type: cell-based
Protocol: The compounds of the present invention are evaluated with respect to superoxide modulating activity according to the following assay procedure:
Human neutrophil superoxide generation:
Superoxide generation by formyl-methionyl-leucyl-phenylalanine (FMLP)-stimulated neutrophils was quantitated by the reduction of cytochrome C (Badwey, J. A., Curnutte, J. T. and Karnovsky, M. L., cis-Polyunsaturated fatty acids induce high levels of superoxide production by human neutrophils. J. BIOL. CHEM. 256: 12640-12643, 1981, which is incorporated herein by reference.) To 5 million neutrophils in 2.85 ml of Krebs-Ringer phosphate buffer, pH 7.2, 50 ul of inhibitor (in 10% DMSO/buffer), and 50 ul ferricytochrome C (5 mM, stock) were added and preincubated for 3 minutes at 37° C. Absorption measurements at 550 nm were recorded at start of preincubation. Fifty ul FMLP (6 uM, stock) was added to initiate reaction. A plateau was reached within 3 minutes and this reading minus the initial reading (before addition of FMLP) was used to calculate nanomoles of superoxide generated based on a molar extinction coefficient of 2.1×10^4 cm^-1 mole^-1.
Isolation of human neutrophils:
Human neutrophils were isolated from freshly drawn blood of healthy donors. […] The red cell lysing procedure was repeated, the cells suspended in appropriate buffer (depending on assay) and counted.

[5] = test system: COX II enzyme; conditions: metabolite of nabumetone; cited from earlier work
[6] = insertion of the thio group; cited from earlier work
[7] = relative to histamine; cited from earlier work
[8] = in vivo; cited from earlier work

For `CC(C)(C)c1cc(S[C@@H]2CCCC[C@H]2SCC(=O)O)cc(C(C)(C)C)c1` (relative stereo) [Example 5, trans-[[2-[[3,5-bis(1,1-dimethylethyl)phenyl]thio]cyclohexyl]thio]acetic acid], the minimal effective dose [1] was 25 mg/kg/day, the “% Inhibition in the paw volume to body weight ratio” value [1] was 64.4% and the IC50 [2] was 3.1 µM.

For `O=C(O)CS[C@@H]1CCCC[C@H]1Sc1ccccc1` (relative stereo) [Example 7, trans-[[2-(phenylthio)cyclohexyl]thio]acetic acid], the “cyclooxygenase inhibition (in words)” value [2] was “did not inhibit either 5-lipoxygenase or cyclooxygenase”, the “5-lipoxygenase inhibition (in words)” value [3] was “did not inhibit either 5-lipoxygenase or cyclooxygenase” and the “superoxide generation (in words)” value [4] was “did inhibit superoxide generation”.

In the case of `CC(C)(C)c1cc(S[C@@H]2CCCC[C@H]2OCC(=O)O)cc(C(C)(C)C)c1` (relative stereo) [Example 17, trans-[[2-[[3,5-bis(1,1-dimethylethyl)phenyl]thio]cyclohexyl]oxy]acetic acid], the minimal effective dose [1] is reported as 25 mg/kg/day, the “% Inhibition in the paw volume to body weight ratio” value [1] is reported as 50.8% and the IC50 [2] is reported as 3.8 µM.

With `C[C@H](Sc1cc(C(C)(C)C)c(O)c(C(C)(C)C)c1)[C@@H](C)OCC(=O)O` (relative stereo) [Formula XX, (±)[2S*-[[3,5-bis(1,1-dimethylethyl)-4-hydroxyphenyl]thio]-1R*-methylpropoxy]acetic acid, reference compound] the “5-lipoxygenase inhibition (in words)” value [3] was “inhibited both superoxide generation and 5-lipoxygenase” and the “superoxide generation (in words)” value [4] was “inhibited both superoxide generation and 5-lipoxygenase”.

For `COc1ccc2cc(CC(=O)O)ccc2c1` [6-methoxy-2-napthylacetic acid], the “selective inhibition of COX II (in words)” value [5] is given as “selectively inhibit the COX II enzyme”.

In the case of `CC(C)(C)c1cc(SC2CCOC2=O)cc(C(C)(C)C)c1O` (stereo not shown) [Compound 3], the “anti-inflammatory activity (in words)” value [6] is given as “loss of anti-inflammatory activity”.

For `CCCCC/C=C\C\C=C/C=C/C=C/[C@@H](SC[C@H](NC(=O)CC[C@H](N)C(=O)O)C(=O)NCC(=O)O)[C@@H](O)CCCC(=O)O` [LTC4], the “potency versus histamine in causing long lasting bronchoconstricting effects” value [7] is given as “at least 100 times”.

For `CS(=O)(=O)Nc1ccc([N+](=O)[O-])cc1OC1CCCCC1` [N-(2-cyclohexyloxy-4-nitrophenyl)methanesulfonamide], the “anti-inflammatory activity (in words)” value [8] is given as “anti-inflammatory” and the “gastric side effects (in words)” value [8] is given as “lacks gastric side effects”.
